Results on 6 compounds are retold here after patent US20240425514A1, “ALSTONINE DERIVATIVES AND SALTS THEREOF” (priority 2021, published 2024).

Entries after “also recorded” stand apart in the source; their conditions may differ. Counter-ions that a name gives are not always drawn.

Assay [1] has as its system zebrafish. As to the kind of experiment: Social preference test in zebrafish, MK-801 model. Type of assay: in vivo, Danio rerio. Conditions: for overall effect on all parameters of the social preference test: drug pretreatment, then water or MK-801 5 μM. The procedure:
(§1) Here, the ability of alstonine salts to reverse schizophrenia-like symptoms produced by MK-801 in zebrafish was evaluated. The atypical antipsychotic olanzapine was used as a comparison.
(§2) Experiments were performed using male and female (50:50 ratio) short-fin wild-type zebrafish (4-month-old, 300-500 mg). Adult animals were obtained from a local commercial supplier (Delphis, R S, Brazil). The animals were maintained at Instituto de Ciências Básicas da Saúde in a light/dark cycle of 14/10 h with lights on at 7:00 a.m for at least two weeks before tests. Fish were kept in 40-L (30×46×33 cm) unenriched glass tanks with non-chlorinated water at a maximum density of five animals per liter. Tank water satisfied the controlled conditions required for zebrafish (26±2° C.; pH 7.0±0.3; dissolved oxygen at 7.0±0.4 mg/L; total ammonia at <0.01 mg/L; total hardness at 5.8 mg/L; alkalinity at 22 mg/L CaCO3; conductivity of 1,500-1,600 μS/cm) and was constantly filtered by mechanical, biological, and chemical filtration systems. Food was provided twice a day as commercial flake food (Poytara®, SP, Brazil) plus brine shrimp (Artemia salina). The sex of the animals was confirmed after euthanasia by dissecting and analyzing the gonads. For all experiments, no sex effects were observed, so data were pooled together. Animals were euthanized by hypothermic shock according to the AVMA Guidelines for the Euthanasia of Animals (Leary and Johnson, 2020).
(§3) MK-801 (dizocilpine) and sulpiride were purchased from Sigma-Aldrich (St. Louis, MO, USA); olanzapine was purchased from Selleck Chemicals. Alstonine hydrochloride, alstonine benzoate, and alstonine benzensulfonate were prepared as described herein. MK-801, olanzapine, and alstonine hydrochloride were dissolved in distilled water, with sonication in an ultrasonic bath for the latter. Sulpiride, alstonine benzoate, and alstonine benzensulfonate were dissolved in 100% DMSO; stock solutions were diluted to achieve a final DMSO concentration of 1% for the highest concentration. MK-801 solutions were freshly prepared, while alstonine stock solutions were kept refrigerated for up to five days. Exposure solutions were renovated halfway through the experiment, with a maximum of four fish exposed to the same solution.
(§4) Different sets of animals were used for each experiment, totaling 600 zebrafish in the study (plus 200 zebrafish serving as stimulus animals). Animals were individually exposed to water or alstonine solutions at 2.5, 5 or 10 mg/L in 500-mL beakers containing 200-mL solution for 20 min (n=15). These concentrations were extrapolated from mice studies. Fish were then transferred to another beaker containing either water or MK-801 at 5 μM and remained there for another 20 minutes.
(§5) The animals were allocated to the experimental groups following block randomization procedures to counterbalance for home tank, sex, and day of testing. The order for outcome assessment was also randomized and care was taken to counterbalance the test apparatuses across the experimental groups. Outcome assessors were blind to the experimental groups, as well as the experimenters responsible for taking the animal and placing it in the test apparatus.
The protocol for the social preference test in zebrafish followed the method described by Benvenutti et al. (2021). After exposure, animals were placed for 7 min in a tank (30×10×15 cm) flanked by two identical tanks (15×10×13 cm) either empty (neutral stimulus) or containing 10 unknown zebrafish (social stimulus). All three tanks were filled with water in standard conditions at a level of 10 cm. The position of the social stimulus (right or left) was counterbalanced throughout the tests. The water in the test tanks was changed between every animal. To assess social behavior, the test apparatus was virtually divided into three vertical zones (interaction, middle, and neutral). Animals were habituated to the apparatus for 2 min and then analyzed for the last 5 min. […]

The subject of assay [2] is zebrafish. As to the kind of experiment: Open tank test in zebrafish, MK-801 model. Type of assay: in vivo, Danio rerio. Conditions: for overall effect on the analyzed parameters of the open tank test: drug pretreatment. The protocol:
as §1, §2, §3, §4, §5
The protocol for the open tank test followed the method described by Benvenutti et al. (2021). Immediately after the social preference test, animals were placed in the center of the open tank arena and recorded for 10 min. The apparatus consisted of a white circular arena (24 cm in diameter and 8 cm in height, 2 cm water level). The apparatus format and the acquisition of videos from the top view allows the evaluation of locomotor parameters related to stereotypic behavior (circular movements and absolute turn angle). The water was changed between every animal. The following outcomes were automatically scored using ANY-Maze software (Stoelting Co., Wood Dale, IL, USA): total distance traveled, absolute turn angle, number of clockwise rotations, and immobility time. […]

The next assay relates to mice. Conditions: 0.5-1.0 mg/kg ip; cited from earlier work.
In another assay the target is T1, D1 (Homo sapiens, UniProt P21728).
T1 construct: host or cells: cortex membranes (tissue)
T1 sequence (P21728 whole entry): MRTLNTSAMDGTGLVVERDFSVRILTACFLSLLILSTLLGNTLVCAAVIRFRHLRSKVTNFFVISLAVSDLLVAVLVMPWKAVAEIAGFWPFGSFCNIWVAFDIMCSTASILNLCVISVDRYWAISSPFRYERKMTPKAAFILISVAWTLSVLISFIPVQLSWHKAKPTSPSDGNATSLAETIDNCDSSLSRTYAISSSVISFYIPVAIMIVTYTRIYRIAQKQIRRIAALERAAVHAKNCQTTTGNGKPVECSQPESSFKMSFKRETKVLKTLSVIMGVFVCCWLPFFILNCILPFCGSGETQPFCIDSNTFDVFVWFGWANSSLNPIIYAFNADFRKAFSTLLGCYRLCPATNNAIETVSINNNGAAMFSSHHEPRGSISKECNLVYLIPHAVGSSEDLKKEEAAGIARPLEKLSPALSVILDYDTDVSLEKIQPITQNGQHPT
The following applies: cortex membranes; preliminary binding studies; cited from earlier work.

The test system of the next assay is D2, and 5-HT2A receptors. Conditions: cortex membranes; preliminary binding studies; cited from earlier work.
The next assay has as its system dopamine (DA) uptake. Conditions: mouse striatal synaptosomes; cited from earlier work.
Where [3] appears, read: MK-801 5 μM vs control, experiment with olanzapine.
The mark [4] stands for this setting: MK-801 5 μM vs controls, experiment with sulpiride.

For `C[C@]12N[C@H](Cc3ccccc31)c1ccccc12` [MK-801, dizocilpine], in the assay with zebrafish [1] (setting [3]), the number of crossings entry is given as “increased”, the “time in the social interaction zone” value was “spent less time in the social interaction zone” and the total distance traveled result is recorded as “increased the total distance traveled”. Besides, in the assay on zebrafish [1] (setting [4]), the immobility time entry is on record as “increased” and the number of crossings result is given as “increased the number of crossings”. Moreover, in the assay on zebrafish [2] (main effect of MK-801 5 μM), the absolute turn angle entry is on record as “decreased”, the clockwise rotations entry is reported as “decreased”, the distance traveled result is listed as “decreased the distance traveled” and the immobility time result was “increased the immobility time”.
On to `COC(=O)C1=COC(C)C2C[n+]3ccc4c([nH]c5ccccc54)c3CC12.O=C([O-])c1ccccc1` (stereo not shown) [alstonine benzoate, Alstonine benzoate], for which, in the assay on zebrafish [1], the “overall effect on all parameters of the social preference test” value (“overall effect on all parameters” below) is “devoid of statistically significant effects”. In addition, the immobility time entry in the assay on zebrafish [1] (interaction between drug pretreatment and MK-801 5 μM) is on record as “trend for alstonine benzoate to prevent the effects of MK-801 on immobility time in the highest concentration tested”.
As to `CCN1CCCC1CNC(=O)c1cc(S(N)(=O)=O)ccc1OC` (stereo not shown) [Sulpiride, sulpiride], in the assay with zebrafish [1], the “overall effect on all parameters” value is listed as “devoid of effects on all parameters”. Also, in the assay with zebrafish [2] (then water or MK-801 5 μM), the “overall effect on the analyzed parameters of the open tank test” value is “no significant effects on any of the analyzed parameters”.
As to `COC(=O)C1=CO[C@@H](C)[C@@H]2Cn3ccc4c5ccccc5nc-4c3C[C@H]12` [Alstonine hydrochloride], the “overall effect on all parameters” value in the assay on zebrafish [1] is reported as “potentiated the effects of MK-801 in the social preference test”. The “time in the zone of interaction” value in the assay with zebrafish [1] (fish exposed 20 min to drug, then 20 min to water or MK-801 5 μM, main effect of drug pretreatment, two-way ANOVA) was “nonspecifically reduced the time in the zone of interaction at the intermediate and highest concentrations”. Further, the number of crossings result with zebrafish [1] (interaction between drug pretreatment and MK-801 5 μM, Bonferroni post hoc) is given as “potentiated the effect of MK-801 at the intermediate concentration”.
Regarding `COC(=O)C1=CO[C@@H](C)[C@@H]2Cn3ccc4c5ccccc5nc-4c3C[C@H]12` [alstonine], the “antipsychotic properties in mice models” value in the assay on mice was “shows antipsychotic properties”. Moreover, the “effect on [3H]SCH23390 binding” value on D1 is listed as “does not affect”. Further, in the assay with D2, and 5-HT2A receptors, the “effect on [3H]Spiperone binding” value is listed as “does not affect”. In addition, in the assay with dopamine (DA) uptake, the DA uptake result was “increasing DA uptake”.
Consider `COC(=O)C1=COC(C)C2C[n+]3ccc4c([nH]c5ccccc54)c3CC12.O=S(=O)([O-])c1ccccc1` (stereo not shown) [alstonine benzensulfonate, Alstonine benzenesulfonate], for which the “overall effect on all parameters” value in the assay with zebrafish [1] was “devoid of statistically significant effects”. Further, the immobility time result with zebrafish [2] (drug pretreatment 20 min, then water or MK-801 5 μM, interaction with MK-801, post hoc) was “the intermediate and highest concentrations prevented the increase in immobility time induced by MK-801; also recorded: subgroup of animals that respond to alstonine benzensulfonate regarding immobility time to the level of controls”. Besides, the distance traveled result in the assay with zebrafish [2] (drug pretreatment 20 min, then water or MK-801 5 μM, main effect of drug) was “trend for a main effect on total distance”. The clockwise rotations entry in the assay with zebrafish [2] (drug pretreatment 20 min, then water or MK-801 5 μM, main effect or interaction with MK-801) is “significant interaction; also recorded: preventing (at the highest concentrations) the effects of MK-801 on clockwise rotations”. In addition, the “overall effect on the analyzed parameters of the open tank test” value in the assay on zebrafish [2] (then water or MK-801 5 μM) is recorded as “possess antipsychotic-like properties similar to olanzapine”.
